Test results from PubChem BioAssay AID2060624 (Molecular Pharmacology Branch, DTP, NCI, 2025).
pIC50: −log10 of the molar value.

System: 217524-143-R1-J4-PDC spheroids with HUVEC/MSC, viability
Assay: Anticancer human tumor 217524-143-R1-J4-PDC patient-derived pancreatic carcinoma cell line growth inhibition [CLK]
Settings: for pIC50: curve of first compound; for viability, T/C: stronger effect = lower value
Procedure, shortened: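 Multi-cell-type spheroids combined patient-derived tumor cells with HUVEC endothelial cells and human mesenchymal stem cells. Paired agents were dosed in half-log steps down from about clinical Cmax, or from 10 microM where Cmax was unknown.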
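Also: spheroids exposed to agents for seven days before reading.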
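For viability, T/C in this document: 100% = DMSO vehicle control viability.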

SMILES: COc1ccc([C@@H](O)c2cc(-c3ncnc4cc(N5CCOCC5)ccc34)c(F)cc2Cl)nn1 + CNC(=O)c1ccc(Nc2nc(OC3CCCC3)c3c(-c4ccc5nc(C)oc5c4)c[nH]c3n2)c(OC)c1
- pIC50 (second compound 0.0316 µM): 6.09
- pIC50 (second compound 0.1 µM): > 7.50
- pIC50 (second compound 0.316 µM): > 7.50
- pIC50 (second compound 1 µM): > 7.50
- pIC50 (second compound 3.16 µM): > 7.50
- pIC50 (second compound 10 µM): > 7.50
- viability, T/C (second compound 0.0316 µM, first compound 0.0316 µM): 95.4%
- viability, T/C (second compound 0.0316 µM, first compound 0.1 µM): 72%
- viability, T/C (second compound 0.0316 µM, first compound 0.316 µM): 66%
- viability, T/C (second compound 0.0316 µM, first compound 1 µM): 50.4%
- viability, T/C (second compound 0.0316 µM, first compound 3.16 µM): 27.6%
- viability, T/C (second compound 0.0316 µM, first compound 10 µM): 10.6%
- viability, T/C (second compound 0.1 µM, first compound 0.0316 µM): 43.1%
- viability, T/C (second compound 0.1 µM, first compound 0.1 µM): 34.6%
- viability, T/C (second compound 0.1 µM, first compound 0.316 µM): 32%
- viability, T/C (second compound 0.1 µM, first compound 1 µM): 27.9%
- viability, T/C (second compound 0.1 µM, first compound 3.16 µM): 19.3%
- viability, T/C (second compound 0.1 µM, first compound 10 µM): 9.43%
- viability, T/C (second compound 0.316 µM, first compound 0.0316 µM): 39.8%
- viability, T/C (second compound 0.316 µM, first compound 0.1 µM): 28.4%
- viability, T/C (second compound 0.316 µM, first compound 0.316 µM): 27.4%
- viability, T/C (second compound 0.316 µM, first compound 1 µM): 20.8%
- viability, T/C (second compound 0.316 µM, first compound 3.16 µM): 13.3%
- viability, T/C (second compound 0.316 µM, first compound 10 µM): 7.35%
- viability, T/C (second compound 1 µM, first compound 0.0316 µM): 32%
- viability, T/C (second compound 1 µM, first compound 0.1 µM): 22.9%
- viability, T/C (second compound 1 µM, first compound 0.316 µM): 23.3%
- viability, T/C (second compound 1 µM, first compound 1 µM): 13.6%
- viability, T/C (second compound 1 µM, first compound 3.16 µM): 11.8%
- viability, T/C (second compound 1 µM, first compound 10 µM): 5.29%
- viability, T/C (second compound 3.16 µM, first compound 0.0316 µM): 25.6%
- viability, T/C (second compound 3.16 µM, first compound 0.1 µM): 27%
- viability, T/C (second compound 3.16 µM, first compound 0.316 µM): 20.2%
- viability, T/C (second compound 3.16 µM, first compound 1 µM): 16.9%
- viability, T/C (second compound 3.16 µM, first compound 3.16 µM): 10.3%
- viability, T/C (second compound 3.16 µM, first compound 10 µM): 4.64%
- viability, T/C (second compound 10 µM, first compound 0.0316 µM): 24.8%
- viability, T/C (second compound 10 µM, first compound 0.1 µM): 23.6%
- viability, T/C (second compound 10 µM, first compound 0.316 µM): 20.7%
- viability, T/C (second compound 10 µM, first compound 1 µM): 13.8%
- viability, T/C (second compound 10 µM, first compound 3.16 µM): 9.68%
- viability, T/C (second compound 10 µM, first compound 10 µM): 5.01%
